According to US5625061A, “Compounds useful in preparing antiproliferative agents and garft inhibitors” (Agouron Pharmaceuticals, Inc., priority 1995, dated 1997):

What was measured:
[1] = tested on: 6C3HED lymphosarcoma implanted in C3H/He female mice; assay: In vivo antitumor activity, 6C3HED lymphosarcoma; parameters: species or system mouse; details: intraperitoneal, once daily for nine days, day 11
Description: (§1) On day zero, 2 mm^2 trocar fragments of 6C3HED lymphosarcoma were implanted subcutaneously in the axillary region into groups of six C3H/He female mice. Starting on day 1, the test compound was administered intraperitoneally in 40% Encapsin given once daily for nine days. Control animals received identical treatment without test: compound. The percentage inhibition given in Table 5 below was calculated by comparing the mass of the control tumors (receiving diluent only) on day 11 to those of animals receiving test compound.

[2] = tested on: C3H/BA mammary adenocarcinoma implanted in C3H/He female mice; assay: In vivo antitumor activity, C3H/BA mammary adenocarcinoma; parameters: species or system mouse; details: intraperitoneal, once daily for nine days, day 14
Description: as §1, with “C3H/BA mammary adenocarcinoma” for “6C3HED lymphosarcoma”, “test” for “test:”, “percentage of” for “percentage”, “inhibition” for “inhibition given in Table 5 below”, “14” for “11”

[3] = tested on: GARFT; details: F. M. Muggia, New Drugs, 1992; cited from earlier work

SMILES: Nc1nc2c(c(=O)[nH]1)SC(CCc1ccc(C(=O)N[C@@H](CCC(=O)O)C(=O)O)s1)CN2 (stereo partly drawn) [Compound 21, 4-[2-(2-Amino-4-oxo-4,6,7,8-tetrahydro-3H-pyrimido[5,4-6][1,4]thiazin-6-yl)-ethyl]-2,5-thienoylamino -L-glutamic acid]
- % Inhibition (tumor mass) ([1]; 12.5 mg/kg): 100%
- % Inhibition (tumor mass) ([1]; 25 mg/kg): 100%
- % Inhibition column: toxicity ([1]; 50 mg/kg): toxic
- % Inhibition (tumor mass) ([2]; 5 mg/kg): 16%
- % Inhibition (tumor mass) ([2]; 10 mg/kg): 84%
- % Inhibition (tumor mass) ([2]; 20 mg/kg): 100%

SMILES: Nc1nc2c(c(=O)[nH]1)CC(CCc1ccc(C(=O)N[C@@H](CCC(=O)O)C(=O)O)cc1)CN2 (stereo partly shown) [5,10-dideazatetrahydrofolic acid]
- GARFT inhibition (in words) [3]: specific tight binding inhibitor of GARFT
